Among the data in patent publication US20250002507A1, “7,8-DIHYDRO-5H-1,6-NAPHTHYRIDINE DERIVATIVES AS POSITIVE ALLOSTERIC MODULATORS OF THE MUSCARINIC ACETYLCHOLINE RECEPTOR M4 FOR TREATING NEUROLOGICAL AND PSYCHIATRIC DISORDERS” (Vanderbilt University, priority 2021, published 2025) are Emax and EC50 values, retold here.

The target in this experiment is T1, Human M4 (Homo sapiens, UniProt P08173).
T1 construct: expressed in transfected cells
T1 sequence (P08173 1-479): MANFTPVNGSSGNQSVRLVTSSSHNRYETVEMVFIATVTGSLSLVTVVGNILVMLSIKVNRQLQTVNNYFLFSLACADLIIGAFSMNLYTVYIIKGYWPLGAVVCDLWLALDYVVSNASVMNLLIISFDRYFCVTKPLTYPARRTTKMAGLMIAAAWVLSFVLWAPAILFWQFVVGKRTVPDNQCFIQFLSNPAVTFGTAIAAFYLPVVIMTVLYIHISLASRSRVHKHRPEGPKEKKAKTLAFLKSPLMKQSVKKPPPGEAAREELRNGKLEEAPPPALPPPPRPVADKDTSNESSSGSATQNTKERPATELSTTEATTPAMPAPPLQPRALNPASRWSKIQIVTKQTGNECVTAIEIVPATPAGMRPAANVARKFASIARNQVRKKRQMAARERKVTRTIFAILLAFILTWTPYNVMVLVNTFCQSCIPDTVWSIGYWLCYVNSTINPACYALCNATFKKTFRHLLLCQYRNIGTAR
Put plainly: mAChR M4 cell-based functional assay (calcium flux, potentiation of EC20 acetylcholine response), hM4-Gqi5 CHO-K1 cells. The following applies: for Emax at 30 µM: CHO-K1, % ACh maximum at 30 μM, human M4, read-out: Emax; for EC50: hM4-Gqi5 CHO-K1 cells, calcium flux, PAM of EC20 acetylcholine, read-out: Human M4 EC50. As for the experimental part:
Human and rat M4 cDNAs, along with the chimeric G protein Gqi5, were transfected into Chinese hamster ovary (CHO-K1) cells purchased from the American Type Culture Collection using Lipofectamine2000. hM4-Gqi5 cells were grown in Ham's F-12 medium containing 10% heat-inactivated fetal bovine serum (FBS), 20 mM HEPES, 50 μg/mL G418 sulfate, and 500 μg/mL Hygromycin B. rM4-Gqi5 cells were grown in DMEM containing 10% heat-inactivated FBS, 20 mM HEPES, 400 μg/mL G418 sulfate, and 500 μg/mL Hygromycin B.
For high throughput measurement of agonist-evoked increases in intracellular calcium, CHO-K1 cells stably expressing muscarinic receptors were plated in growth medium lacking G418 and hygromycin at 15,000 cells/20 μL/well in Greiner 384-well black-walled, tissue culture (TC)-treated, clear-bottom plates (VWR). Cells were incubated overnight at 37° C. and 5% CO2. The next day, cells were washed using an ELX 405 (BioTek) with assay buffer; the final volume was then aspirated to 20 μL. Next, 20 μL of a 2.3 μM stock of Fluo-4/acetoxymethyl ester (Invitrogen, Carlsbad, CA), prepared as a 2.3 mM stock in DMSO and mixed in a 1:1 ratio with 10% (w/v) Pluronic F-127 and diluted in assay buffer, was added to the wells and the cell plates were incubated for 50 min at 37° C. and 5% CO2. Dye was removed by washing with the ELX 405 and the final volume was aspirated to 20 μL. Compound master plates were formatted in an 11 point concentration-response curve (CRC) format (1:3 dilutions) in 100% DMSO with a starting concentration of 10 mM using a BRAVO liquid handler (Agilent). Test compound CRCs were then transferred to daughter plates (240 nL) using the Echo acoustic plate reformatter (Labcyte, Sunnyvale, CA) and then diluted into assay buffer (40 μL) to a 2× stock using a Thermo Fisher Combi (Thermo Fisher Scientific, Waltham, MA).
Calcium flux was measured using the Functional Drug Screening System (FDSS) 6000 or 7000 (Hamamatsu Corporation, Tokyo, Japan) as an increase in the fluorescent static ratio. Compounds were applied to cells (20 μL, 2×) using the automated system of the FDSS at 2-4 seconds into the protocol and the data were collected at 1 Hz. At 144 seconds, 10 μL of an EC20 concentration of the muscarinic receptor agonist acetylcholine was added (5×), followed by the addition of 12 μL of an EC80 concentration of acetylcholine at the 230 second time point (5×). Agonist activity was analyzed as a concentration-dependent increase in calcium mobilization upon compound addition. Positive allosteric modulator activity was analyzed as a concentration-dependent increase in the EC20 acetylcholine response. Antagonist activity was analyzed as a concentration-dependent decrease in the EC80 acetylcholine response. Concentration-response curves were generated using a four-parameter logistical equation in XLFit curve fitting software (IDBS, Bridgewater, NJ) for Excel (Microsoft, Redmond, WA) or Prism (GraphPad Software, Inc., San Diego, CA).
Compounds were synthesized as described above. Activity (EC50 and Emax) was determined in the mAChR M4 cell-based functional assay as described above and the data are shown in Tables 2-4. The compound number corresponds to the compound numbers used in Table 1.

Take `Cc1c(N2CCc3ncc(-c4ccc(F)nc4)cc3C2)nn2cnnc2c1C` [Compound 42, 6-(7,8-dimethyl-[1,2,4]triazolo[4,3-b]pyridazin-6-yl)-3-(6-fluoro-3-pyridyl)-7,8-dihydro-5H-1,6-naphthyridine]: the Emax at 30 µM was determined as 94% and the half-maximal effective concentration (EC50) was determined as 217 nM.

With `COc1ccc(-c2cnc3c(c2)CN(c2nn4cnnc4c(C)c2C)CC3)cn1` [Compound 43, 6-(7,8-dimethyl-[1,2,4]triazolo[4,3-b]pyridazin-6-yl)-3-(6-methoxy-3-pyridyl)-7,8-dihydro-5H-1,6-naphthyridine], the Emax at 30 µM was 94% and the EC50 was 182 nM. With `Cc1c(N2CCc3ncc(-c4cccnc4)cc3C2)nn2cnnc2c1C` [Compound 44, 6-(7,8-dimethyl-[1,2,4]triazolo[4,3-b]pyridazin-6-yl)-3-(3-pyridyl)-7,8-dihydro-5H-1,6-naphthyridine], the Emax at 30 µM came to 92% and the concentration giving a half-maximal response (EC50) was 147 nM. In the same order, the values of `Cc1c(N2CCc3ncc(Nc4cc(Cl)c(F)cc4F)cc3C2)nn2cnnc2c1C` [Compound 45, N-(5-chloro-2,4-difluoro-phenyl)-6-(7,8-dimethyl-[1,2,4]triazolo[4,3-b]pyridazin-6-yl)-7,8-dihydro-5H-1,6-naphthyridin-3-amine] are 71% and 271 nM.

Turning to `Cc1c(N2CCc3ncc(Nc4c(F)cccc4C#N)cc3C2)nn2cnnc2c1C` [Compound 46, 2-[[6-(7,8-dimethyl-[1,2,4]triazolo[4,3-b]pyridazin-6-yl)-7,8-dihydro-5H-1,6-naphthyridin-3-yl]amino]-3-fluoro-benzonitrile], the Emax at 30 µM came out at 64% and the EC50 worked out at 611 nM. In the same order, the values of `Cc1c(N2CCc3ncc(Nc4c(F)cccc4F)cc3C2)nn2cnnc2c1C` [Compound 47, N-(2,6-difluorophenyl)-6-(7,8-dimethyl-[1,2,4]triazolo[4,3-b]pyridazin-6-yl)-7,8-dihydro-5H-1,6-naphthyridin-3-amine] are 80% and 92.1 nM. In the same order, the values of `Cc1ccc(Nc2cnc3c(c2)CN(c2nn4cnnc4c(C)c2C)CC3)c(F)c1` [Compound 48, 6-(7,8-dimethyl-[1,2,4]triazolo[4,3-b]pyridazin-6-yl)-N-(2-fluoro-4-methyl-phenyl)-7,8-dihydro-5H-1,6-naphthyridin-3-amine] are 80% and 147 nM. As for `Cc1c(N2CCc3ncc(Nc4cccc(F)c4F)cc3C2)nn2cnnc2c1C` [Compound 49, N-(2,3-difluorophenyl)-6-(7,8-dimethyl-[1,2,4]triazolo[4,3-b]pyridazin-6-yl)-7,8-dihydro-5H-1,6-naphthyridin-3-amine], the maximal effect (Emax) at 30 µM stood at 82% and the EC50 was found to be 82.4 nM.

Turning to `Cc1c(N2CCc3ncc(Nc4ccccc4Cl)cc3C2)nn2cnnc2c1C` [Compound 50, N-(2-chlorophenyl)-6-(7,8-dimethyl-[1,2,4]triazolo[4,3-b]pyridazin-6-yl)-7,8-dihydro-5H-1,6-naphthyridin-3-amine], the Emax at 30 µM amounted to 85% and the EC50 is 211 nM. Taken in the same sequence, the figures for `Cc1c(N2CCc3ncc(Nc4ccccc4N(C)C)cc3C2)nn2cnnc2c1C` [Compound 51, N1-[6-(7,8-dimethyl-[1,2,4]triazolo[4,3-b]pyridazin-6-yl)-7,8-dihydro-5H-1,6-naphthyridin-3-yl]-N2,N2-dimethyl-benzene-1,2-diamine] were 67% and 402 nM. Taken in the same sequence, the figures for `Cc1c(N2CCc3ncc(Nc4ccccc4C#N)cc3C2)nn2cnnc2c1C` [Compound 52, 2-[[6-(7,8-dimethyl-[1,2,4]triazolo[4,3-b]pyridazin-6-yl)-7,8-dihydro-5H-1,6-naphthyridin-3-yl]amino]benzonitrile] were 76% and 381 nM. As for `Cc1ccccc1Nc1cnc2c(c1)CN(c1nn3cnnc3c(C)c1C)CC2` [Compound 53, 6-(7,8-dimethyl-[1,2,4]triazolo[4,3-b]pyridazin-6-yl)-N-(o-tolyl)-7,8-dihydro-5H-1,6-naphthyridin-3-amine], the maximal response (Emax) at 30 µM came out at 91% and the EC50 was 86.1 nM. Take `COc1ccccc1Nc1cnc2c(c1)CN(c1nn3cnnc3c(C)c1C)CC2` [Compound 54, 6-(7,8-dimethyl-[1,2,4]triazolo[4,3-b]pyridazin-6-yl)-N-(2-methoxyphenyl)-7,8-dihydro-5H-1,6-naphthyridin-3-amine]: the Emax at 30 µM is 90% and the EC50 was 152 nM. Taken in the same sequence, the figures for `CSc1ccccc1Nc1cnc2c(c1)CN(c1nn3cnnc3c(C)c1C)CC2` [Compound 55, 6-(7,8-dimethyl-[1,2,4]triazolo[4,3-b]pyridazin-6-yl)-N-(2-methylsulfanylphenyl)-7,8-dihydro-5H-1,6-naphthyridin-3-amine] were 85% and 241 nM. `Cc1c(N2CCc3ncc(C(=O)N4CCCC4)cc3C2)nn2cnnc2c1C` [Compound 56, [6-(7,8-dimethyl-[1,2,4]triazolo[4,3-b]pyridazin-6-yl)-7,8-dihydro-5H-1,6-naphthyridin-3-yl]-pyrrolidin-1-yl-methanone]: the Emax at 30 µM was determined as 91%.

Turning to `Cc1c(N2CCc3ncc(C(=O)NC4CC4)cc3C2)nn2cnnc2c1C` [Compound 57, N-cyclopropyl-6-(7,8-dimethyl-[1,2,4]triazolo[4,3-b]pyridazin-6-yl)-7,8-dihydro-5H-1,6-naphthyridine-3-carboxamide], the Emax at 30 µM was found to be 60% and the EC50 is 7750 nM. Take `Cc1c(N2CCc3ncc(C(=O)N4CCOCC4)cc3C2)nn2cnnc2c1C` [Compound 58, [6-(7,8-dimethyl-[1,2,4]triazolo[4,3-b]pyridazin-6-yl)-7,8-dihydro-5H-1,6-naphthyridin-3-yl]-morpholino-methanone]: the maximal effect (Emax) at 30 µM turned out to be 51%.

In the case of `Cc1c(N2CCc3ncc(C(=O)Nc4ccccc4F)cc3C2)nn2cnnc2c1C` [Compound 59, 6-(7,8-dimethyl-[1,2,4]triazolo[4,3-b]pyridazin-6-yl)-N-(2-fluorophenyl)-7,8-dihydro-5H-1,6-naphthyridine-3-carboxamide], the Emax at 30 µM came out at 89% and the concentration giving a half-maximal response (EC50) is 695 nM. In the same order, the values of `Cc1ncc(-c2cnc3c(c2)CN(c2nn4cnnc4c(C)c2C)CC3)s1` [Compound 60, 5-[6-(7,8-dimethyl-[1,2,4]triazolo[4,3-b]pyridazin-6-yl)-7,8-dihydro-5H-1,6-naphthyridin-3-yl]-2-methyl-thiazole] are 82% and 180 nM.

As to `Cc1nc(C)c(-c2cnc3c(c2)CN(c2nn4cnnc4c(C)c2C)CC3)s1` [Compound 61, 5-[6-(7,8-dimethyl-[1,2,4]triazolo[4,3-b]pyridazin-6-yl)-7,8-dihydro-5H-1,6-naphthyridin-3-yl]-2,4-dimethyl-thiazole], the Emax at 30 µM was determined as 89% and the concentration for a half-maximal effect (EC50) is 171 nM. In the same order, the values of `Cc1c(N2CCc3ncc(C(C)(C)O)cc3C2)nn2cnnc2c1C` [Compound 62, 2-[6-(7,8-Dimethyl-[1,2,4]triazolo[4,3-b]pyridazin-6-yl)-7,8-dihydro-5H-1,6-naphthyridin-3-yl]propan-2-ol] are 108% and 92.9 nM.
